Test results reported in publication PMC10198183 (Frontiers in drug discovery, 2022).
Converted amounts (≈) assume the structure as drawn. Like-named read-outs stand apart in the source and are kept apart here.

Experiments:
[1] = tested on: C. albicans; assay: Broth microdilution susceptibility test (CLSI M27-A4), C. albicans; format: cell-based; details: RPMI 1640, 30 °C, 24–48 h, mean of triplicate; for MIC: read-out: MIC75 C. albicans
Protocol: (§1) Broth microdilution susceptibility test: The minimum inhibitory concentrations (MIC75) were determined by the broth microdilution method according to the Clinical and Laboratory Standards Institute (CLSI) M27-A4 standard ([CLSI, 2017])). Briefly, a suspension of C. albicans or C. glabrata culture (~0.5–2.5 × 10^3 cells/ml) was resuspended in RPMI 1640 media (Fisher Catalog number 11875093). The resuspended culture was further incubated with 100 μl of two-fold serially diluted test compounds (100–0.8 μM and 1.0 μM to 7 nM) at 30 °C for 24–48 h. Positive and negative control (wells without antifungal agents and wells without yeast) were conducted. Increased optical density (OD) corresponds to the Candida growth and was quantified by comparison with untreated Candida control samples. The MIC75 of test compounds was determined visually and spectrophotometrically (OD600) after 24–48 h. Experiments were run in triplicate, and data was reported as a mean.

[2] = tested on: C. glabrata; assay: Broth microdilution susceptibility test (CLSI M27-A4), C. glabrata; format: cell-based; details: RPMI 1640, 30 °C, 24–48 h, mean of triplicate; for MIC: read-out: MIC75 C. glabrata
Protocol: as §1

[3] = target: human Cyp3A4 (Homo sapiens, UniProt P08684); details: for IC50: read-out: CYP 3A4 IC50, human Cyp3A4 supersomes, 2 μM midazolam, 30 min at 37°C
Chain of human Cyp3A4 (P08684 2-503 limits assumed): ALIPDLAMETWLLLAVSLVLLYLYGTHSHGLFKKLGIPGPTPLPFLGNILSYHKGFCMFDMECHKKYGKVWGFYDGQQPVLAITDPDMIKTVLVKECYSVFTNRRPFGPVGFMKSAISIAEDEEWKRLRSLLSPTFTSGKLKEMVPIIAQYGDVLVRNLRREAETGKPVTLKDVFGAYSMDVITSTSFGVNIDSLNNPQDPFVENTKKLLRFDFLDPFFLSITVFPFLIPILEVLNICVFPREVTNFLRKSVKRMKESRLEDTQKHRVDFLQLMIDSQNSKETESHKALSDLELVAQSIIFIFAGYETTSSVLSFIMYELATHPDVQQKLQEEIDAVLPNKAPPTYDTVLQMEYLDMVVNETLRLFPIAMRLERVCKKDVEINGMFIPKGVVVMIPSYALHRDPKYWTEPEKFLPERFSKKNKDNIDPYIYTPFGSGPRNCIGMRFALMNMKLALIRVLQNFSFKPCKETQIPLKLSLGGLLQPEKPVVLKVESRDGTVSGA

O=S(=O)(C1CC1)N1CCN(c2ccc(OCC3COC(Cn4ccnc4)(c4ccc(Cl)cc4Cl)O3)cc2)CC1 (stereo not shown) [Entry 3e] showed an MIC [1] of 0.8 µM (≈ 0.475 µg/mL) and an MIC [2] of 0.8 µM (≈ 0.475 µg/mL).

O=S(=O)(CCC(F)(F)F)N1CCN(c2ccc(OC[C@@H]3CO[C@@](Cn4ccnc4)(c4ccc(Cl)cc4Cl)O3)cc2)CC1 [Entry 3k] was tested, and the MIC [1] was 1.6 µM (≈ 1.04 µg/mL), the “MIC75 C. glabrata” value [2] was “no effect and N.E” and the IC50 [3] was 249 nM.

With CS(=O)(=O)N1CCN(c2ccc(OC[C@@H]3CO[C@@](Cn4ccnc4)(c4ccc(Cl)cc4Cl)O3)cc2)CC1 [Entry 3a] the MIC [1] was 0.125 µM (≈ 0.0709 µg/mL).

O=S(=O)(N1CCN(c2ccc(OC[C@@H]3CO[C@@](Cn4ccnc4)(c4ccc(Cl)cc4Cl)O3)cc2)CC1)C(F)(F)F [Entry 3i] was tested, and the MIC [1] was 0.8 µM (≈ 0.497 µg/mL) and the MIC [2] was 1.6 µM (≈ 0.994 µg/mL).

For O=S(=O)(CC(F)F)N1CCN(c2ccc(OC[C@@H]3CO[C@@](Cn4ccnc4)(c4ccc(Cl)cc4Cl)O3)cc2)CC1 [Entry 3l], the MIC [1] was 0.062 µM (≈ 0.0383 µg/mL), the MIC [2] was 0.25 µM (≈ 0.154 µg/mL) and the “improvement in selectivity (Cyp3A4 versus C. albicans) relative to (±)-Ketoconazole (2)” value ([3]; 3l versus 2) was 5 fold. For the same compound, the “window between Cyp3A4 inhibition and activity against C. albicans” value ([3]; Cyp3A4 IC50 versus C. albicans MIC75) was 2.6 fold and the IC50 [3] was 162 nM.

CS(=O)(=O)CS(=O)(=O)N1CCN(c2ccc(OC[C@@H]3CO[C@@](Cn4ccnc4)(c4ccc(Cl)cc4Cl)O3)cc2)CC1 [Entry 3h] was tested, and the MIC [1] was 0.8 µM (≈ 0.516 µg/mL) and the MIC [2] was 6.25 µM (≈ 4.03 µg/mL).

Compound O=S(=O)(CC(F)(F)F)N1CCN(c2ccc(OC[C@@H]3CO[C@@](Cn4ccnc4)(c4ccc(Cl)cc4Cl)O3)cc2)CC1 [Entry 3j] has an MIC [1] of 1.6 µM (≈ 1.02 µg/mL), an MIC [2] of 0.8 µM (≈ 0.508 µg/mL) and an IC50 [3] of 450 nM.

Compound CCS(=O)(=O)N1CCN(c2ccc(OC[C@@H]3CO[C@@](Cn4ccnc4)(c4ccc(Cl)cc4Cl)O3)cc2)CC1 [Entry 3b] has an MIC [1] of 0.125 µM (≈ 0.0727 µg/mL) and an MIC [2] of 0.5 µM (≈ 0.291 µg/mL).

Compound C[C@@H]1[C@H](O)[C@@H](C)/C=C/C=C/C=C/C=C/C=C/C=C/C=C/[C@H](O[C@@H]2O[C@H](C)[C@@H](O)[C@H](N)[C@@H]2O)C[C@@H]2O[C@](O)(C[C@@H](O)C[C@@H](O)[C@H](O)CC[C@@H](O)C[C@@H](O)CC(=O)O[C@H]1C)C[C@H](O)[C@H]2C(=O)O [Amphotericin B, reference compound] has an MIC ([1]; Candida albicans) of 0.25 µM (≈ 0.231 µg/mL) and an MIC ([2]; Nakaseomyces glabratus) of 0.25 µM (≈ 0.231 µg/mL).

For CC(C)S(=O)(=O)N1CCN(c2ccc(OC[C@@H]3CO[C@@](Cn4ccnc4)(c4ccc(Cl)cc4Cl)O3)cc2)CC1 [Entry 3d], the “MIC75 C. albicans” value [1] was “complete loss of in vitro antifungal activity and N.E” and the “MIC75 C. glabrata” value [2] was “complete loss of in vitro antifungal activity and N.E”.

For N#CCS(=O)(=O)N1CCN(c2ccc(OC[C@@H]3CO[C@@](Cn4ccnc4)(c4ccc(Cl)cc4Cl)O3)cc2)CC1 [Entry 3g], the MIC [1] was 0.25 µM (≈ 0.148 µg/mL) and the MIC [2] was 0.5 µM (≈ 0.296 µg/mL).

With CCCS(=O)(=O)N1CCN(c2ccc(OC[C@@H]3CO[C@@](Cn4ccnc4)(c4ccc(Cl)cc4Cl)O3)cc2)CC1 [Entry 3c] the MIC [1] was 0.125 µM (≈ 0.0744 µg/mL), the MIC [2] was 0.5 µM (≈ 0.298 µg/mL) and the IC50 [3] was 75.6 nM.

With CC(=O)N1CCN(c2ccc(OC[C@@H]3CO[C@@](Cn4ccnc4)(c4ccc(Cl)cc4Cl)O3)cc2)CC1 [Entry 4, (2S, 4R)-Ketoconazole, reference compound] the MIC ([1]; Candida albicans) was 0.125 µM (≈ 0.0664 µg/mL) and the MIC ([2]; Nakaseomyces glabratus) was 0.5 µM (≈ 0.266 µg/mL).

CC(=O)N1CCN(c2ccc(OC[C@H]3CO[C@](Cn4ccnc4)(c4ccc(Cl)cc4Cl)O3)cc2)CC1 (racemic) [Entry 2, (±)-Ketoconazole, reference compound] showed an MIC ([1]; Candida albicans) of 0.25 µM (≈ 0.133 µg/mL), an MIC ([2]; Nakaseomyces glabratus) of 0.25 µM (≈ 0.133 µg/mL) and an MIC [2] of 0.5 µM (≈ 0.266 µg/mL).
